We go through four compounds from patent US11786543B2, “Compositions comprising decitabine and tetrahydrouridine and uses thereof” (The Board of Trustees of the University of Illinois, priority 2008, dated 2023).

Values joined by “and” are separate entries in the source; they are usually repeats but may differ in a detail not shown here. Equal values may be shown once.

One data set has as its system baboons. The data set is described as follows: Pharmacodynamic responses (HbF %, neutrophil counts) to decitabine with or without THU in baboons. The class given is in vivo, baboon. Set-up: ANC nadir: unit not given here. As for the experimental part: Fetal hemoglobin expression, HbF %, pre and post treatment with the indicated dose of decitabine. […] Oral treatment was with decitabine or a slightly modified decitabine (decitabine-mesylate—Dac-m).
Decitabine was administered at the doses indicated in two consecutive blocks of 5 days each. THU at the indicated doses was administered 60 minutes before each decitabine dose.

Data set [1] concerns Reno-1 renal cell cancer xenograft. The following applies: mouse, in vivo. As for the experimental part:
In an effort to apply the proposed formulation and regimen to treat different cancer histologies, a renal cell cancer cell-line (Reno-1) was developed from a surgical sample of renal cancer and used in a xeno-transplantation experiment. […] The percentage of necrosis in each tissue section was evaluated in a blinded fashion.

The test system of data set [2] is normal hematopoietic precursors. The class given is cell-based. The following applies: DAC 0.5 μM, equimolar Ara-C, clinically relevant levels of HU; measured D6.
Procedure: Measurement was performed on D6.
Normal CD34 cells were isolated from cord blood. […] Equimolar levels of AraC were used as positive controls. […] Twenty-four hours after DAC or AraC exposure, apoptosis was measured by flow-cytometric assessment for annexin staining. Double annexin/7-aminoactinomycin D (7AAD)-positive cells represent late apoptosis/necrosis. […] Results are expressed as a percentage of vehicle treated controls.
(§1) AraC, a cytidine analog that terminates DNA chain synthesis, was used as a positive control for DNA damage and apoptosis induction.
A further data set deals with normal CD34+ cells. The data set is described as follows: Cell counts, morphology and colony formation. The data set is classed as cell-based. The following applies: non-DNA-damaging DNMTI-depleting decitabine; Ara-C equimolar. The text has this: The Kasumi-1 cell-line is derived from a patient with AMLI-ETO leukemia and represents a late-stage model of transformation and malignant evolution.

The subject of data set [3] is normal CD34+ hematopoietic cells. The data set is described as follows: DNA damage (Fast Micromethod for DNA scission, γH2AX flow cytometry). The following applies: decitabine 0.5 μM D1,3,5; Ara-C 0.5 μM D1,3,5; hydroxyurea 500 μM D1-5; measured D6.
Procedure: Measurement was performed on D6.
Dark histogram=isotype control for flow-cytometricanalysis. Light histograms show the γH2AX staining for untreated control cells. Measurement was performed on D6.
Normal CD34 cells were isolated from cord blood. DAC 0.005 μM was added once daily on days 1-4 and DNMT1 was quantified by Western blot on day 5. […] Twenty-four hours after DAC or AraC exposure, DNA damage was measured by flow-cytometric assessment for phosphorylation of histone H2AX (γH2AX; B) or the Fast Micromethod for DNA scission (FIG. 19C). Equimolar levels of AraC were used as positive controls. Gray histogram is the isotype control. […] Twenty-four hours after DAC or AraC exposure, apoptosis was measured by flow-cytometric assessment for annexin staining. Double annexin/7-aminoactinomycin D (7AAD)-positive cells represent late apoptosis/necrosis. […] Results are expressed as a percentage of vehicle treated controls.
as §1
The nature of data set [4]: Decitabine plasma pharmacokinetics in baboons (LC/MS). As for the experimental part:
Baboons were treated with IV decitabine 0.5 mg/kg (2 animals), SQ decitabine 0.5 mg/kg (2 animals), or oral decitabine 10 mg/kg (2 animals).
Decitabine was administered to two baboons IV (0.5 mg/kg), SQ (0.5 mg/kg) and orally (10 mg/kg). Blood was collected at 7 time-points and plasma concentrations were determined using an LC/MS/MS method adapted from a previously published method 26.
AUClast refers to the area under a plotted plasma concentration-time curve (not shown) at the last recorded timepoint.
Two baboons (PA7484 and PA7470) were administered oral THU 20 mg/kg (400 mg/m^2) 60 minutes prior to oral decitabine 5 mg/kg, or decitabine alone. After a wash-out period of greater than 2 weeks, these same two animals were administered oral THU 2 mg/kg […] 60 minutes prior to oral decitabine 5 mg/kg, or oral decitabine alone. […] Decitabine levels were measured at various timepoints by LC-MS. […]
To compare the effect of different routes of administration on the DAC concentration-time profile, plasma DAC levels were compared after IV or SC administration versus oral administration to the same animals (washout period of ≥2 weeks between drug administrations to the same animal). […] Blood was collected for up to 7 time-points after administration and plasma concentrations were determined using LC/MSMS. […]

Setting [5] is: Oral 9.35 mg/kg/d, individual baboons, 9.35 mg/kg/day.
Where [6] appears, read: Oral 18.7 mg/kg/d, individual baboons.

In the case of `CS(=O)(=O)O.Nc1ncn([C@H]2C[C@H](O)[C@@H](CO)O2)c(=O)n1` [Dac-m, decitabine-mesylate], the ANC nadir is 1417 with baboons (Oral 4.1 mg/kg/d, baboon 7001); 481 in the data set with baboons (Oral 6.7 mg/kg/d, baboon 7002); 463 and 2000 in the data set on baboons (setting [5]); 1659 in the data set on baboons (setting [6]). The Post-HbF % with baboons (Oral 4.1 mg/kg/d, baboon 7001) was 13.1%; with baboons (Oral 6.7 mg/kg/d, baboon 7002) it was 31.4%; with baboons (setting [5]), 62.3% and 40.5%; with baboons (setting [6]), 67.8%.
In the case of “avastin: standard agent used to treat renal cancer”, in data set [1], the “sensitivity of the tumor to standard agents” value is “relatively resistant”.
Take `Nc1ccn([C@@H]2O[C@H](CO)[C@@H](O)[C@@H]2O)c(=O)n1` [Ara-C, cytosine arabinoside]: the “apoptosis (annexin V-FITC and 7AAD double staining)” value in data set [2] was “cause significant apoptosis and cell-death”. The cell counts result in the data set on normal CD34+ cells is “more devastating to normal cells”. The “DNA damage (Fast Micro-method for DNA scission, γH2AX)” value in data set [3] is given as “cause significant DNA damage”.
For the compound `O=C1NC(O)CCN1[C@@H]1O[C@H](CO)[C@@H](O)[C@H]1O` (some centres unmarked) [THU, Tetrahydrouridine], in data set [4] (60 minutes before DAC 100 mg/m^2, PA7470 and PA7484), the “DAC concentrations, THU 400 mg/m^2 versus THU 40 mg/m^2” value is reported as “produced higher DAC concentrations”. Moreover, in data set [4] (in vivo), the “DAC concentrations, THU 60 minutes before versus simultaneously or 30 minutes before DAC” value is listed as “produced higher DAC concentrations”.
